In brackets after ≈: the same amount, converted by molar mass. Where a SMILES comes first, the peptide text is derived from it. Bridges are numbered along the chain shown (N, C = ends). [ ]: non-standard residue; d: D form. S5 = C=CCCC[C@](C)(N)C(=O)O
What was measured:
Test in all cases: microbe, parasite or virus in culture
C. albicans 901 = conditions: for Minimum inhibitory concentration (MIC): 901, 48 h
Protocol: (§1) The in vitro antifungal activities of the target peptides were evaluated according to protocols from the CLSI. The broth microdilution method was used to determine the minimum inhibitory concentration (MIC) of the target peptides in 96-well plates. Fluconazole was used as a reference drug.
(§2) Clinical isolates of C. albicans SC5314, 901, 904, C. tropicalis ATCC20026 and clinical isolate 895, C. glabrata ATCC1182 and clinical isolate 896, C. krusei ATCC2340, and C. parapsilosis ATCC22010 are from the collection library in the Drug Discovery and Development Center, Naval Medical University, Shanghai, China. C. auris clinical isolates are provided by Linqi Wang (Institute of Microbiology, Chinese Academy of Sciences) and Changbin Chen (Institut Pasteur of Shanghai, Chinese Academy of Sciences). All strains were cultured in YPD (1% yeast extract, 2% peptone, and 2% glucose) liquid medium overnight at 30 °C with shaking at 220 rpm.
(§3) The MICs of chemicals against all strains were determined by the micro broth dilution method according to the Clinical and Laboratory Standards Institute (Wayne PA, Reference Method for Broth Dilution Antifungal Susceptibility Testing of yeasts, approved Standard M27-A3, 3 rd ed; Clinical and Laboratory Standards Institute (CLSI): USA, 2008). The initial concentration of fungal suspension in RPMI 1640 medium was 3–5 × 10^3 colonies forming unit (CFU)/mL, which was added to 96-well plates. Peptides were prepared in dimethyl sulfoxide (DMSO) with an initial stored concentration of 6.4 mg/mL. Serial dilutions were made based on the CLSI M27 guide to obtaining the final concentrations ranging from 0.125 to 64 μg/mL for fluconazole and 0.25 to 128 μg/mL for peptides […]. The plates were incubated at 30 °C for 48 h. Optical density was measured at 630 nm, and background optical densities were subtracted from that of each well. The definition of MIC is the lowest concentration at which 80% of tested strains cannot grow.

C. albicans 904 = conditions: for Minimum inhibitory concentration (MIC): 904, 48 h
Protocol: as §1, §2, §3

C. albicans SC5314 = conditions: SC5314, 48 h
Protocol: as §1, §2, §3

C. auris 918 = conditions: for Minimum inhibitory concentration (MIC): 918, 48 h
Protocol: as §1, §2, §3

C. auris 919 = conditions: for Minimum inhibitory concentration (MIC): 919, 48 h
Protocol: as §1, §2, §3

C. glabrata 896 = conditions: for Minimum inhibitory concentration (MIC): 896, 48 h
Protocol: as §1, §2, §3

C. glabrata ATCC 1182 = conditions: for Minimum inhibitory concentration (MIC): ATCC 1182, 48 h
Protocol: as §1, §2, §3

C. krusei ATCC 2340 = conditions: for Minimum inhibitory concentration (MIC): ATCC 2340, 48 h
Protocol: as §1, §2, §3

[1] = system: C. parapsilosis ATCC 22010; conditions: for Minimum inhibitory concentration (MIC): ATCC 22010, 48 h
Protocol: as §1, §2, §3

C. tropicalis 895 = conditions: for Minimum inhibitory concentration (MIC): 895, 48 h
Protocol: as §1, §2, §3

C. tropicalis ATCC 20026 = conditions: for Minimum inhibitory concentration (MIC): ATCC 20026, 48 h
Protocol: as §1, §2, §3

[2] = Candidozyma auris, 48 h, read-out: Minimum inhibitory concentration (MIC)

OC(Cn1cncn1)(Cn1cncn1)c1ccc(F)cc1F [Fluconazole, reference compound]
MIC (C. albicans 901; Candida albicans, 901, 48 h, read-out: Minimum inhibitory concentration (MIC)): > 64 µg/mL
MIC (C. albicans 904; Candida albicans, 904, 48 h, read-out: Minimum inhibitory concentration (MIC)): > 64 µg/mL
MIC (C. albicans SC5314; Candida albicans, read-out: Minimum inhibitory concentration (MIC)): 0.5 µg/mL (≈ 1.63 µM)
MIC (C. auris 918; [2]): > 128 µg/mL
MIC (C. auris 919; [2]): > 128 µg/mL
MIC (C. glabrata 896; Nakaseomyces glabratus, 48 h, read-out: Minimum inhibitory concentration (MIC)): > 128 µg/mL
MIC (C. glabrata ATCC 1182; Nakaseomyces glabratus, ATCC1182, 48 h, read-out: Minimum inhibitory concentration (MIC)): 2 µg/mL (≈ 6.53 µM)
MIC (C. krusei ATCC 2340; Pichia kudriavzevii, ATCC2340, 48 h, read-out: Minimum inhibitory concentration (MIC)): 64 µg/mL (≈ 209 µM)
MIC ([1]; Lodderomyces parapsilosis, ATCC22010, 48 h, read-out: Minimum inhibitory concentration (MIC)): 1 µg/mL (≈ 3.27 µM)
MIC (C. tropicalis 895; Candida tropicalis, 895, 48 h, read-out: Minimum inhibitory concentration (MIC)): > 128 µg/mL
MIC (C. tropicalis ATCC 20026; Candida tropicalis, ATCC20026, 48 h, read-out: Minimum inhibitory concentration (MIC)): 1 µg/mL (≈ 3.27 µM)

CC[C@H](C)[C@H](NC(=O)[C@H](CCCCN)NC(=O)[C@H](CCCCN)NC(=O)[C@@H](NC(=O)[C@]1(C)CCCC=CCCC[C@](C)(NC(C)=O)C(=O)N[C@@H](CC(C)C)C(=O)N[C@@H](Cc2ccccc2)C(=O)N[C@@H](CC(=O)O)C(=O)N1)[C@@H](C)CC)C(=O)N[C@@H](C)C(=O)N[C@@H](CCC(=O)O)C(=O)N[C@@H](CO)C(=O)N[C@@H](Cc1ccccc1)C(N)=O [Sau-1] (Ac-[S5]LFD[S5]IKKIAESF-NH2; staple 1-5)
Minimum inhibitory concentration (MIC) (C. albicans 901): 32 µg/mL (≈ 20 µM)
Minimum inhibitory concentration (MIC) (C. albicans 904): >128 µg/mL
Minimum inhibitory concentration (MIC) (C. albicans SC5314): >64 µg/mL
Minimum inhibitory concentration (MIC) (C. auris 918): >128 µg/mL
Minimum inhibitory concentration (MIC) (C. auris 919): >128 µg/mL
Minimum inhibitory concentration (MIC) (C. glabrata 896): >128 µg/mL
Minimum inhibitory concentration (MIC) (C. glabrata ATCC 1182): >128 µg/mL
Minimum inhibitory concentration (MIC) (C. krusei ATCC 2340): >128 µg/mL
Minimum inhibitory concentration (MIC) [1]: 128 µg/mL (≈ 79.9 µM)
Minimum inhibitory concentration (MIC) (C. tropicalis 895): >128 µg/mL
Minimum inhibitory concentration (MIC) (C. tropicalis ATCC 20026): >128 µg/mL

CC[C@H](C)[C@H](NC(=O)[C@H](CCCCN)NC(=O)[C@H](CCCCN)NC(=O)[C@]1(C)CCCC=CCCC[C@](C)(NC(=O)CNC(C)=O)C(=O)N[C@@H](Cc2ccccc2)C(=O)N[C@@H](CC(=O)O)C(=O)N[C@@H]([C@@H](C)CC)C(=O)N1)C(=O)N[C@@H](C)C(=O)N[C@@H](CCC(=O)O)C(=O)N[C@@H](CO)C(=O)N[C@@H](Cc1ccccc1)C(N)=O [Sau-2] (Ac-G[S5]FDI[S5]KKIAESF-NH2; staple 2-6)
Minimum inhibitory concentration (MIC) (C. albicans 901): >128 µg/mL
Minimum inhibitory concentration (MIC) (C. albicans 904): >128 µg/mL
Minimum inhibitory concentration (MIC) (C. albicans SC5314): >64 µg/mL
Minimum inhibitory concentration (MIC) (C. auris 918): >128 µg/mL
Minimum inhibitory concentration (MIC) (C. auris 919): >128 µg/mL
Minimum inhibitory concentration (MIC) (C. glabrata 896): 128 µg/mL (≈ 82.8 µM)
Minimum inhibitory concentration (MIC) (C. glabrata ATCC 1182): >128 µg/mL
Minimum inhibitory concentration (MIC) (C. krusei ATCC 2340): >128 µg/mL
Minimum inhibitory concentration (MIC) [1]: >128 µg/mL
Minimum inhibitory concentration (MIC) (C. tropicalis 895): 16 µg/mL (≈ 10.4 µM)
Minimum inhibitory concentration (MIC) (C. tropicalis ATCC 20026): >128 µg/mL

CC[C@H](C)[C@H](NC(=O)[C@H](CCCCN)NC(=O)[C@]1(C)CCCC=CCCC[C@](C)(NC(=O)[C@H](CC(C)C)NC(=O)CNC(C)=O)C(=O)N[C@@H](CC(=O)O)C(=O)N[C@@H]([C@@H](C)CC)C(=O)N[C@@H]([C@@H](C)CC)C(=O)N1)C(=O)N[C@@H](C)C(=O)N[C@@H](CCC(=O)O)C(=O)N[C@@H](CO)C(=O)N[C@@H](Cc1ccccc1)C(N)=O [Sau-3] (Ac-GL[S5]DII[S5]KIAESF-NH2; staple 3-7)
Minimum inhibitory concentration (MIC) (C. albicans 901): >128 µg/mL
Minimum inhibitory concentration (MIC) (C. albicans 904): >128 µg/mL
Minimum inhibitory concentration (MIC) (C. albicans SC5314): >64 µg/mL
Minimum inhibitory concentration (MIC) (C. auris 918): >128 µg/mL
Minimum inhibitory concentration (MIC) (C. auris 919): >128 µg/mL
Minimum inhibitory concentration (MIC) (C. glabrata 896): >128 µg/mL
Minimum inhibitory concentration (MIC) (C. glabrata ATCC 1182): >128 µg/mL
Minimum inhibitory concentration (MIC) (C. krusei ATCC 2340): >128 µg/mL
Minimum inhibitory concentration (MIC) [1]: >128 µg/mL
Minimum inhibitory concentration (MIC) (C. tropicalis 895): >128 µg/mL
Minimum inhibitory concentration (MIC) (C. tropicalis ATCC 20026): >128 µg/mL

CC[C@H](C)[C@@H]1NC(=O)[C@H]([C@@H](C)CC)NC(=O)[C@@](C)(NC(=O)[C@H](Cc2ccccc2)NC(=O)[C@H](CC(C)C)NC(=O)CNC(C)=O)CCCC=CCCC[C@@](C)(C(=O)N[C@H](C(=O)N[C@@H](C)C(=O)N[C@@H](CCC(=O)O)C(=O)N[C@@H](CO)C(=O)N[C@@H](Cc2ccccc2)C(N)=O)[C@@H](C)CC)NC(=O)[C@H](CCCCN)NC1=O [Sau-4] (Ac-GLF[S5]IIK[S5]IAESF-NH2; staple 4-8)
Minimum inhibitory concentration (MIC) (C. albicans 901): >128 µg/mL
Minimum inhibitory concentration (MIC) (C. albicans 904): >128 µg/mL
Minimum inhibitory concentration (MIC) (C. albicans SC5314): >64 µg/mL
Minimum inhibitory concentration (MIC) (C. auris 918): >128 µg/mL
Minimum inhibitory concentration (MIC) (C. auris 919): >128 µg/mL
Minimum inhibitory concentration (MIC) (C. glabrata 896): >128 µg/mL
Minimum inhibitory concentration (MIC) (C. glabrata ATCC 1182): >128 µg/mL
Minimum inhibitory concentration (MIC) (C. krusei ATCC 2340): >128 µg/mL
Minimum inhibitory concentration (MIC) [1]: >128 µg/mL
Minimum inhibitory concentration (MIC) (C. tropicalis 895): >128 µg/mL
Minimum inhibitory concentration (MIC) (C. tropicalis ATCC 20026): >128 µg/mL

CC[C@H](C)[C@H](NC(=O)[C@H](CC(=O)O)NC(=O)[C@H](Cc1ccccc1)NC(=O)[C@H](CC(C)C)NC(=O)CNC(C)=O)C(=O)N[C@@]1(C)CCCC=CCCC[C@@](C)(C(=O)N[C@@H](CCC(=O)O)C(=O)N[C@@H](CO)C(=O)N[C@@H](Cc2ccccc2)C(N)=O)NC(=O)[C@H]([C@@H](C)CC)NC(=O)[C@H](CCCCN)NC(=O)[C@H](CCCCN)NC1=O [Sau-6] (Ac-GLFDI[S5]KKI[S5]ESF-NH2; staple 6-10)
Minimum inhibitory concentration (MIC) (C. albicans 901): >128 µg/mL
Minimum inhibitory concentration (MIC) (C. albicans 904): >128 µg/mL
Minimum inhibitory concentration (MIC) (C. albicans SC5314): >64 µg/mL
Minimum inhibitory concentration (MIC) (C. auris 918): >128 µg/mL
Minimum inhibitory concentration (MIC) (C. auris 919): >128 µg/mL
Minimum inhibitory concentration (MIC) (C. glabrata 896): >128 µg/mL
Minimum inhibitory concentration (MIC) (C. glabrata ATCC 1182): >128 µg/mL
Minimum inhibitory concentration (MIC) (C. krusei ATCC 2340): >128 µg/mL
Minimum inhibitory concentration (MIC) [1]: >128 µg/mL
Minimum inhibitory concentration (MIC) (C. tropicalis 895): >128 µg/mL
Minimum inhibitory concentration (MIC) (C. tropicalis ATCC 20026): >128 µg/mL

CC[C@H](C)[C@@H]1NC(=O)[C@H](CCCCN)NC(=O)[C@@](C)(NC(=O)[C@@H](NC(=O)[C@@H](NC(=O)[C@H](CC(=O)O)NC(=O)[C@H](Cc2ccccc2)NC(=O)[C@H](CC(C)C)NC(=O)CNC(C)=O)[C@@H](C)CC)[C@@H](C)CC)CCCC=CCCC[C@@](C)(C(=O)N[C@@H](CO)C(=O)N[C@@H](Cc2ccccc2)C(N)=O)NC(=O)[C@H](C)NC1=O [Sau-7] (Ac-GLFDII[S5]KIA[S5]SF-NH2; staple 7-11)
Minimum inhibitory concentration (MIC) (C. albicans 901): >128 µg/mL
Minimum inhibitory concentration (MIC) (C. albicans 904): >128 µg/mL
Minimum inhibitory concentration (MIC) (C. albicans SC5314): >64 µg/mL
Minimum inhibitory concentration (MIC) (C. auris 918): >128 µg/mL
Minimum inhibitory concentration (MIC) (C. auris 919): >128 µg/mL
Minimum inhibitory concentration (MIC) (C. glabrata 896): >128 µg/mL
Minimum inhibitory concentration (MIC) (C. glabrata ATCC 1182): >128 µg/mL
Minimum inhibitory concentration (MIC) (C. krusei ATCC 2340): >128 µg/mL
Minimum inhibitory concentration (MIC) [1]: >128 µg/mL
Minimum inhibitory concentration (MIC) (C. tropicalis 895): >128 µg/mL
Minimum inhibitory concentration (MIC) (C. tropicalis ATCC 20026): >128 µg/mL

From article PMC8389037, “Design, Synthesis and Antifungal Activity of Stapled Aurein1.2 Peptides” (Antibiotics, 2021)
